Results published in the supplement of paper PMC5908809.

Tests used:
[1] = test system: normal NK cells expanded with K562-aAPC; test: percent inhibition of viability; higher = more inhibition; settings: 72 h, IL-2 2.5 ng/mL
Description: (§1)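 Drug sensitivity and resistance testing on K562-aAPC-expanded normal NK cells: 5 concentrations (10-fold steps over a 10,000-fold range), 72 h at 37 °C, viability by CellTiter-Glo normalised to DMSO and benzethonium chloride controls; DSS from the fitted curve.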

DERL-7 (IL-2 2.5 ng/mL) [2] = test: as above; settings: 72 h
IMC-1 (IL-2 20 ng/mL) [3] = test: as above; settings: 72 h
KAI3 (IL-2 2.5 ng/mL) [4] = test: as above; settings: 72 h
KHYG-1 (IL-2 2.5 ng/mL) [5] = test: as above; settings: 72 h
NK-92 (IL-2 2.5 ng/mL) [6] = test: as above; settings: 72 h
NK-YS (IL-2 2.5 ng/mL) [7] = test: as above; settings: 72 h
NKL (IL-2 2.5 ng/mL) [8] = test: as above; settings: 72 h
SNK-6 (IL-2 2.5 ng/mL) [9] = test: as above; settings: 72 h
YT (IL-2 2.5 ng/mL) [10] = test: as above; settings: 72 h
[11] = test system: normal primary NK cells, pool 1 (3 donors) (IL-2 2.5 ng/mL); test: as above; settings: 72 h
[12] = test system: normal primary NK cells, pool 1 (3 donors), resting (IL-2 0 ng/mL); test: as above; settings: 72 h
[13] = test system: normal primary NK cells, pool 2 (3 donors) (IL-2 2.5 ng/mL); test: as above; settings: 72 h
[14] = test system: normal primary NK cells, pool 3 (3 donors) (IL-2 2.5 ng/mL); test: as above; settings: 72 h
[15] = test system: normal NK cells expanded with K562-aAPC; test: drug sensitivity score (DSS) (DSS units); higher = more sensitive; extreme values may be limits of the assay; settings: 72 h; IL-2 2.5 ng/mL
Description: as §1

DERL-7 (IL-2 2.5 ng/mL) [16] = test: as above; settings: 72 h
IMC-1 (IL-2 20 ng/mL) [17] = test: as above; settings: 72 h
KAI3 (IL-2 2.5 ng/mL) [18] = test: as above; settings: 72 h
KHYG-1 (IL-2 2.5 ng/mL) [19] = test: as above; settings: 72 h
NK-92 (IL-2 2.5 ng/mL) [20] = test: as above; settings: 72 h
NK-YS (IL-2 2.5 ng/mL) [21] = test: as above; settings: 72 h
NKL (IL-2 2.5 ng/mL) [22] = test: as above; settings: 72 h
SNK-6 (IL-2 2.5 ng/mL) [23] = test: as above; settings: 72 h
YT (IL-2 2.5 ng/mL) [24] = test: as above; settings: 72 h
[25] = test system: normal primary NK cells, pool 1 (3 donors) (IL-2 2.5 ng/mL); test: as above; settings: 72 h
[26] = test system: normal primary NK cells, pool 1 (3 donors), resting (IL-2 0 ng/mL); test: as above; settings: 72 h
[27] = test system: normal primary NK cells, pool 2 (3 donors) (IL-2 2.5 ng/mL); test: as above; settings: 72 h
[28] = test system: normal primary NK cells, pool 3 (3 donors) (IL-2 2.5 ng/mL); test: as above; settings: 72 h

CN[C@@H](C)C(=O)N[C@H](C(=O)N1CCC[C@H]1c1nc(C(=O)c2ccc(F)cc2)cs1)C1CCCCC1 [LCL161] (max concentration tested 25000 nM)
percent inhibition of viability [%]
Settings | 2.5 nM | 25 nM | 250 nM | 2500 nM | 25000 nM
DERL-7 (IL-2 2.5 ng/mL) [2] | 3.1 | 13 | 11.3 | 36.6 | 64.2
IMC-1 (IL-2 20 ng/mL) [3] | -0.09 | 4.35 | 9.97 | 0.82 | 31.3
KAI3 (IL-2 2.5 ng/mL) [4] | -3.88 | -6.89 | -0.05 | 26.9 | 67.2
KHYG-1 (IL-2 2.5 ng/mL) [5] | -3.69 | -2.27 | 43.7 | 87.9 | 86.8
NK-92 (IL-2 2.5 ng/mL) [6] | -9.41 | 4.44 | 14.3 | 35.9 | 87.5
NK-YS (IL-2 2.5 ng/mL) [7] | -6.78 | -9.82 | -8.28 | -8.9 | 20.8
NKL (IL-2 2.5 ng/mL) [8] | -0.58 | 12.2 | 1.43 | 5.86 | 46.8
SNK-6 (IL-2 2.5 ng/mL) [9] | 9.58 | 4.06 | -3.23 | -1.7 | 42.3
YT (IL-2 2.5 ng/mL) [10] | 4.24 | 0.05 | 5.12 | 15.8 | 49.9
[1] | 3.9 | 9.45 | 17.1 | 42 | 71.6
[11] | -2.53 | -6.03 | 25.8 | 58 | 91
[12] | -36.7 | -17.7 | -2.19 | 43.8 | 88.3
[13] | -10.3 | 4.59 | 24.6 | 55.9 | 80.5
[14] | -5.71 | 1.98 | 19.5 | 51.1 | 75.2

Settings | drug sensitivity score
DERL-7 (IL-2 2.5 ng/mL) [16] | 8.62
IMC-1 (IL-2 20 ng/mL) [17] | 1.5
KAI3 (IL-2 2.5 ng/mL) [18] | 7.35
KHYG-1 (IL-2 2.5 ng/mL) [19] | 21.5
NK-92 (IL-2 2.5 ng/mL) [20] | 9.07
NK-YS (IL-2 2.5 ng/mL) [21] | 0.39
NKL (IL-2 2.5 ng/mL) [22] | 3.42
SNK-6 (IL-2 2.5 ng/mL) [23] | 1.99
YT (IL-2 2.5 ng/mL) [24] | 4.58
[15] | 10.4
[25] | 14
[26] | 10.4
[27] | 13.6
[28] | 12

NS(=O)(=O)OC[C@@H]1C[C@@H](n2ccc3c(N[C@H]4CCc5ccccc54)ncnc32)C[C@@H]1O [Pevonedistat] (max concentration tested 10000 nM)
percent inhibition of viability [%]
Settings | 1 nM | 10 nM | 100 nM | 1000 nM | 10000 nM
DERL-7 (IL-2 2.5 ng/mL) [2] | 1.08 | 2.36 | -6.58 | 91.5 | 101
IMC-1 (IL-2 20 ng/mL) [3] | 0.59 | 6.87 | 46.6 | 92.8 | 98.2
KAI3 (IL-2 2.5 ng/mL) [4] | 9.59 | 12.4 | 70.2 | 95 | 100
KHYG-1 (IL-2 2.5 ng/mL) [5] | 3.14 | -1.1 | 71.7 | 105 | 106
NK-92 (IL-2 2.5 ng/mL) [6] | -8.15 | 6.99 | 1.09 | 75.8 | 109
NK-YS (IL-2 2.5 ng/mL) [7] | 0.95 | -1.33 | 3.83 | 78.1 | 98.4
NKL (IL-2 2.5 ng/mL) [8] | -12.9 | -14.6 | -16.9 | 92.3 | 104
SNK-6 (IL-2 2.5 ng/mL) [9] | 23.6 | 3.72 | 89 | 97.2 | 99.5
YT (IL-2 2.5 ng/mL) [10] | -2.08 | 2.87 | 62.7 | 79.6 | 82.8
[1] | -5 | -5.72 | -9.68 | 70.2 | 80.3
[11] | -6.09 | 19.2 | 23.3 | 57.4 | 69.8
[12] | 1.82 | 21.5 | -26.7 | -18.9 | -22.4
[13] | -6.66 | 4.92 | 9.96 | 45 | 64.2
[14] | -5.71 | 5 | 10.3 | 68.8 | 81

Settings | drug sensitivity score
DERL-7 (IL-2 2.5 ng/mL) [16] | 16.3
IMC-1 (IL-2 20 ng/mL) [17] | 22.6
KAI3 (IL-2 2.5 ng/mL) [18] | 27.2
KHYG-1 (IL-2 2.5 ng/mL) [19] | 26.2
NK-92 (IL-2 2.5 ng/mL) [20] | 14.2
NK-YS (IL-2 2.5 ng/mL) [21] | 15
NKL (IL-2 2.5 ng/mL) [22] | 16.1
SNK-6 (IL-2 2.5 ng/mL) [23] | 29
YT (IL-2 2.5 ng/mL) [24] | 22.8
[15] | 12.6
[25] | 14
[26] | 0
[27] | 9.66
[28] | 14

O=C(O)c1ccc(-c2c[nH]c3ncc(-c4ccccc4)cc23)cc1C1CCCC1 (max concentration tested 10000 nM)
percent inhibition of viability [%]
Settings | 1 nM | 10 nM | 100 nM | 1000 nM | 10000 nM
DERL-7 (IL-2 2.5 ng/mL) [2] | -9.96 | -1.92 | -0.6 | 3.14 | 69
IMC-1 (IL-2 20 ng/mL) [3] | -3.86 | -6.5 | -2.05 | 1.32 | 72.7
KAI3 (IL-2 2.5 ng/mL) [4] | 14.8 | 11.5 | 12.9 | 31 | 53.1
KHYG-1 (IL-2 2.5 ng/mL) [5] | 1.54 | -1.17 | 6.23 | 24.4 | 87.8
NK-92 (IL-2 2.5 ng/mL) [6] | -7.79 | -6.02 | -14.8 | 6.45 | 63.1
NK-YS (IL-2 2.5 ng/mL) [7] | 3.9 | -4.11 | 6.44 | 17.4 | 53.2
NKL (IL-2 2.5 ng/mL) [8] | -3 | 3.11 | 11.4 | 27.3 | 76.9
SNK-6 (IL-2 2.5 ng/mL) [9] | 2.78 | -21.4 | -20.9 | -24.3 | -8.86
YT (IL-2 2.5 ng/mL) [10] | 3.57 | -0.35 | 6.38 | 10.9 | 43.5
[1] | 0.69 | -1.15 | 0.93 | 14.6 | 68.6
[11] | -4.88 | 9.93 | 9.09 | 13.8 | 33.7
[12] | -0.46 | 4.28 | 6.33 | 11.9 | 41.2
[13] | -5.78 | -5.79 | -4.92 | 6.53 | 46
[14] | 2.83 | 5.65 | 10 | 2.66 | 25.9

Settings | drug sensitivity score
DERL-7 (IL-2 2.5 ng/mL) [16] | 4.22
IMC-1 (IL-2 20 ng/mL) [17] | 4.18
KAI3 (IL-2 2.5 ng/mL) [18] | 8.09
KHYG-1 (IL-2 2.5 ng/mL) [19] | 8.41
NK-92 (IL-2 2.5 ng/mL) [20] | 4.5
NK-YS (IL-2 2.5 ng/mL) [21] | 4.89
NKL (IL-2 2.5 ng/mL) [22] | 7.3
SNK-6 (IL-2 2.5 ng/mL) [23] | 0
YT (IL-2 2.5 ng/mL) [24] | 3.73
[15] | 6.12
[25] | 3.22
[26] | 3.47
[27] | 3.48
[28] | 1.43
